The nature of experiment [1]: Rate of the reaction between N-acetyl-L-cysteine and chalcones, HPLC. It counts as physicochemical. As to conditions: methanol-water-potassium phosphate buffer pH 7.5, 30° C.; first order. The text has this:
The decline of the chalcone concentration was followed by HPLC. The following experimental setups were used: 1. […] 2. […] This system was used i the case of 4′-methoxychalcone. The rate of decline of the chalcone concentration was followed by HPLC. The rate constant was estimated using Grafit and assuming that the reaction followed first order kinetic; i.e.: [c]=[c0]exp(−kt) where [c] is the concentration of the chalcone in question at time t, [c0] is the concentration of the chalcone in question at time zero, k is the rate constant, and t the time.

For experiment [2], the system named is L. major promastigotes. Nature of the experiment: In vitro growth of L. major promastigotes, 3H-thymidine uptake (Example 4). Format: cell-based, Leishmania major. The note with it: in vitro L. major growth test.
Another experiment deals with P. falciparum. Nature of the experiment: P. falciparum growth in vitro (Table 14.1, strain not stated). It counts as cell-based. The note with it: Plasmodium falciparum, read-out: inhibition of malaria parasites (middle figure) (converted). The method, then: The P. falciparum experimental setup was as described in Example 15.
Testing of the effect of drugs and serum on the in vitro growth of the parasites. The experiments in which compounds were tested for their ability to inhibit parasite growth were performed by a modification of the method originally described by Jensen et al. (1982). Fifty μl of parasitized erythrocytes (parasitemia approximately 1%) in a concentration of 5×10^8/ml and 50 μl of RPMI medium containing different concentrations of the test compound was added to each well of a 96 well flat-bottomed microtiter plate (Nunc). The cultures were then incubated for 48 hours, 24 hours before termination of the culture adding 20 μl of 3-H-hypoxanthine (40 uCi/ml) (New England Nuclear, Boston, Mass., USA) was added to each well. The cultures were then harvested onto glass fiber filters using a Skatron cell harvester (Skatron, Lierbyen, Norway), and the incorporation of 3-H-hypoxanthine into the DNA of dividing parasites was determined by liquid scintillation spectrometry.

The subject of the next experiment is human lymphocytes. The experiment can be described thus: Lymphocyte Proliferation Assay, 3H-thymidine incorporation (Example 13). As to conditions: Homo sapiens, Lymphocyte, read-out: inhibition of lymphocytes (lower figure).
The subject of experiment [3] is L. major promastigotes. The experiment can be described thus: L. major promastigotes from 4-days cultures, 3H-thymidine uptake (Examples 5, 14). Format: cell-based, Leishmania major. As to conditions: Leishmania major, Table 14.1, read-out: percentage inhibition of promastigotes (upper figure). An outline of the steps:
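Promastigotes harvested on day 4 of culture were exposed to compound, then pulsed with 100 μC 3H-thymidine for a further 18 h. Cells were collected on filter paper, washed, and incorporated radioactivity counted by scintillation.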

The test system of experiment [4] is chloroquine-sensitive P. falciparum 3D7A strain. The experiment can be described thus: In vitro growth of P. falciparum 3D7A, 3H-hypoxanthine uptake (Example 15). It counts as cell-based, Plasmodium falciparum.
In another experiment the test system is P. yoelii strain YM. The experiment can be described thus: P. yoelii strain YM infection in mice, parasitemia and mortality (Example 16). Format: in vivo, BALB/c mice.
The test system of experiment [5] is chloroquine resistant P. falciparum DD2 strain. The experiment can be described thus: In vitro growth of P. falciparum DD2, 3H-hypoxanthine uptake (Example 15). Format: cell-based, Plasmodium falciparum. The note with it: Plasmodium falciparum, DD2, read-out: concentration in which parasite growth was retarded by 50%.
Where [6] appears, read: D + 10, i.p. 0.5 mg/kg/day once daily D0-D + 3.
Setting [7] is: D + 12, i.p. 0.5 mg/kg/day once daily D0-D + 3.
The mark [8] stands for this setting: D + 14, i.p. 0.5 mg/kg/day once daily D0-D + 3.
Setting [9] is: D + 16, i.p. 0.5 mg/kg/day once daily D0-D + 3.
Setting [10] is: D + 16, i.p. 2.5 mg/kg/day once daily D0-D + 3.
The mark [11] stands for this setting: D + 18, i.p. 0.5 mg/kg/day once daily D0-D + 3.
[12] abbreviates: D + 18, i.p. 2.5 mg/kg/day once daily D0-D + 3.
[13] abbreviates: D + 20, i.p. 0.5 mg/kg/day once daily D0-D + 3.
Setting [14] is: D + 20, i.p. 2.5 mg/kg/day once daily D0-D + 3.
The mark [15] stands for this setting: D + 20, i.p. 5 mg/kg/day once daily D0-D + 3.

The source of these data is patent US6603046B1, “Bis-aromatic a,β-unsaturated ketones” (Lica Pharmaceuticals A/S, priority 1992, dated 2003).

Converted amounts (≈) assume the structure as drawn. Read-outs that look alike come from different tables or passages of the source.

As to `C=CCOc1ccc(C(=O)CCc2ccc(OC)cc2OC)cc1`, in experiment [1], the “Estimated rate constant k” value was 0.0011 min⁻¹.

In the case of `C=CC(C)(OC)c1cc(CCC(=O)c2ccc(O)cc2)c(OC)cc1O` (stereo not shown), the “Estimated rate constant k” value in experiment [1] was 0.00058 min⁻¹.

For the compound `CC(C)=CCc1cc(/C=C/C(=O)c2ccc(O)c(CC=C(C)C)c2O)ccc1O` [4,2′,4′-trihydroxy-3,3′-di-(3-methylbut-2-enyl)chalcone], the “antiparasitic effect in bioassay-guided fractionation” value in the experiment with L. major promastigotes [2] is “showed major antiparasitic effects”.

As for `O=C(/C=C/c1ccccc1)c1ccc(O)cc1` [4′-Hydroxychalcone, 4′-hydroxychalcone], the values for the inhibition at 0.5 µg/mL with P. falciparum (0.5 μg/ml) and in the experiment on L. major promastigotes [3] (0.5 μg/ml) were 29.9% and 26.4 ± 6.5%, respectively. In addition, the inhibition at 1 µg/mL with P. falciparum (1 μg/ml) is 40.5%; with human lymphocytes it was 3.6%; with L. major promastigotes [3] (1 μg/ml) it was 37.3 ± 13.6%. The figures for the inhibition at 5 µg/mL in the experiment with P. falciparum (5 μg/ml), in the experiment on human lymphocytes and in the experiment on L. major promastigotes [3] (5 μg/ml) were 64.3%, 10.2% and 73.4 ± 15.3%, respectively. Also, the inhibition at 10 µg/mL in the experiment with P. falciparum (10 μg/ml) was 95.6%; with human lymphocytes it was 17%; in the experiment with L. major promastigotes [3] (10 μg/ml) it was 90.1 ± 6.5%. Besides, in experiment [4] (Plasmodium falciparum; read-out: concentration in which growth was retarded by 50%), the IC50 fell in the range of 1 to 5 µg/mL (≈ 4.46 to 22.3 µM). In addition, the “Percentage inhibition of 3H-hypoxanthine uptake (mean ± SEM)” value was found to be 29.9 ± 10.7% in experiment [4] (title: percentage inhibition of 3H-hypoxanthine uptake; 0.5 μg/ml), 40.5 ± 11.1% in experiment [4] (title: percentage inhibition of 3H-hypoxanthine uptake; 1 μg/ml), 64.2 ± 8.5% in experiment [4] (title: percentage inhibition of 3H-hypoxanthine uptake; 5 μg/ml) and 95.5 ± 1.1% in experiment [4] (title: percentage inhibition of 3H-hypoxanthine uptake; 10 μg/ml).

As for `CC(C)=CCc1c(O)ccc(C(=O)/C=C/c2cc(O)c3c(c2)C=CC(C)(C)O3)c1O` [(A)], the “antiparasitic effect in bioassay-guided fractionation” value in the experiment on L. major promastigotes [2] is recorded as “Only the latter compound showed major antiparasitic effects”.

Consider `CCN(CC)CCCC(C)Nc1ccnc2cc(Cl)ccc12` (stereo not shown) [Chloroquine, chloroquine phosphate, reference compound], for which the “% parasitemia (mean ± SEM)” value in the experiment on P. yoelii strain YM (D + 4, i.p. 0.5 mg/kg/day once daily D0-D + 3) came out at 0.9 ± 0.5%; in the experiment on P. yoelii strain YM (D + 4, i.p. 2.5 mg/kg/day once daily D0-D + 3), 0.2 ± 0.2%; in the experiment on P. yoelii strain YM (D + 4, i.p. 5 mg/kg/day once daily D0-D + 3), 0.02 ± 0.04%; with P. yoelii strain YM (D + 6, i.p. 0.5 mg/kg/day once daily D0-D + 3), 24 ± 8.6%; in the experiment on P. yoelii strain YM (D + 6, i.p. 2.5 mg/kg/day once daily D0-D + 3), 2.4 ± 2.2%; in the experiment with P. yoelii strain YM (D + 6, i.p. 5 mg/kg/day once daily D0-D + 3), 0%. Moreover, the “% parasitemia (mean ± SEM)” value in the experiment with P. yoelii strain YM (D + 8, i.p. 0.5 mg/kg/day once daily D0-D + 3) worked out at 57.4 ± 4.2%; in the experiment on P. yoelii strain YM (D + 8, i.p. 2.5 mg/kg/day once daily D0-D + 3), 28.3 ± 16.2%; in the experiment with P. yoelii strain YM (D + 8, i.p. 5 mg/kg/day once daily D0-D + 3), 0.1 ± 0.17%; with P. yoelii strain YM (setting [6]), 66.3 ± 6.6%; in the experiment with P. yoelii strain YM (D + 10, i.p. 2.5 mg/kg/day once daily D0-D + 3) it was 33.7 ± 19.8%; with P. yoelii strain YM (D + 10, i.p. 5 mg/kg/day once daily D0-D + 3), 2.8 ± 2.7%. The “% parasitemia (mean ± SEM)” value is reported as 49.7 ± 17.6% with P. yoelii strain YM (setting [7]); 40.2 ± 21% in the experiment with P. yoelii strain YM (D + 12, i.p. 2.5 mg/kg/day once daily D0-D + 3); 13 ± 4.4% with P. yoelii strain YM (D + 12, i.p. 5 mg/kg/day once daily D0-D + 3); 35.3 ± 4.7% with P. yoelii strain YM (setting [8]); 37.4 ± 19.8% in the experiment on P. yoelii strain YM (D + 14, i.p. 2.5 mg/kg/day once daily D0-D + 3); 22.4 ± 6.1% with P. yoelii strain YM (D + 14, i.p. 5 mg/kg/day once daily D0-D + 3). The “% parasitemia (mean ± SEM)” value with P. yoelii strain YM (setting [9]) came to 18.5 ± 19.1%; with P. yoelii strain YM (setting [10]) it was 4.7 ± 4.6%; in the experiment with P. yoelii strain YM (D + 16, i.p. 5 mg/kg/day once daily D0-D + 3), 62.2 ± 24.5%; in the experiment on P. yoelii strain YM (setting [11]), 9%; in the experiment with P. yoelii strain YM (setting [12]) it was 0%; in the experiment with P. yoelii strain YM (D + 18, i.p. 5 mg/kg/day once daily D0-D + 3), 75.2 ± 3.3%. For the same compound, the entries for the “% parasitemia (mean ± SEM)” value in the experiment with P. yoelii strain YM (setting [13]), in the experiment with P. yoelii strain YM (setting [14]) and with P. yoelii strain YM (setting [15]) were 0%, 0% and 50 ± 16.4%, respectively. Moreover, the “mortality (no. of dead mice/total no. of tested mice)” value is on record as “(2/5)” in the experiment with P. yoelii strain YM (setting [6]); “(2/5)” in the experiment with P. yoelii strain YM (setting [7]); “(2/5)” in the experiment with P. yoelii strain YM (setting [8]); “(3/5)” with P. yoelii strain YM (setting [9]); “(2/5)” in the experiment on P. yoelii strain YM (setting [10]); 4/5 with P. yoelii strain YM (setting [11]). Besides, the “mortality (no. of dead mice/total no. of tested mice)” value in the experiment with P. yoelii strain YM (setting [12]) is reported as 2/5; in the experiment on P. yoelii strain YM (setting [13]), 4/5; in the experiment with P. yoelii strain YM (setting [14]), 2/5; in the experiment on P. yoelii strain YM (setting [15]), “(1/5)”. Further, the IC50 is 38 to 75 µg/mL in experiment [4] (Plasmodium falciparum, read-out: concentration in which growth was retarded by 50%) and 0.075 to 0.15 µg/mL in experiment [5]. Moreover, the “Percentage inhibition of 3H-hypoxanthine uptake (mean ± SEM)” value was determined as 34.0 ± 6.1% in experiment [4] (title: percentage inhibition of 3H-hypoxanthine uptake; 38 ng/ml), 80.2 ± 3.7% in experiment [4] (title: percentage inhibition of 3H-hypoxanthine uptake; 75 ng/ml), 97.1 ± 1.0% in experiment [4] (title: percentage inhibition of 3H-hypoxanthine uptake; 150 ng/ml) and 98.8 ± 0.3% in experiment [4] (title: percentage inhibition of 3H-hypoxanthine uptake; 300 ng/ml).

With `O=C(/C=C/c1ccccc1)c1ccccc1` [drawing 102, chalcone, reference compound], in experiment [1], the “Estimated rate constant k” value was 0.034 min⁻¹.

Regarding `COc1ccc(C(=O)/C=C/c2ccccc2)cc1` [drawing 103, 4′-methoxychalcone], in experiment [1], the “Estimated rate constant k” value is 0.016 min⁻¹.

On to `COc1ccc(/C=C/C(=O)c2ccccc2)c(OC)c1` [drawing 104], for which the “Estimated rate constant k” value in experiment [1] is 0.0033 min⁻¹.

`O=C(/C=C/c1ccc(O)cc1)c1ccc(O)cc1` [drawing 105]: the “Estimated rate constant k” value in experiment [1] is 0.0020 min⁻¹.
